Measured values reported in the kinase profiling compilation of Christmann-Franck et al. (2016).

Legend:
Test in all cases: KINOMEscan competition binding
Settings in all cases: compound 10.0 µM
RPS6KA6 KD1 (human) = RPS6KA6 KD1 (human) (UniProt Q9UK32)
[1] = tested on: EIF2AK4 KD2 (human), Q9P2K8 [S808G]
BLK (human) = BLK (human) (UniProt P51451)
ULK3 (human) = ULK3 (human) (UniProt Q6PHR2)
[2] = tested on: FLT3 (human), P36888 [D835Y]
STK32B (human) = STK32B (human) (UniProt Q9NY57)
DYRK1A (human) = DYRK1A (human) (UniProt Q13627)
ROS1 (human) = ROS1 (human) (UniProt P08922)
PRKCE (human) = PRKCE (human) (UniProt Q02156)
AKT1 (human) = AKT1 (human) (UniProt P31749)
MAPK8 (human) = MAPK8 (human) (UniProt P45983)
MAP3K13 (human) = MAP3K13 (human) (UniProt O43283)
MAP2K6 (human) = MAP2K6 (human) (UniProt P52564)
BTK (human) = BTK (human) (UniProt Q06187)
[3] = tested on: KIT (human), P10721 [A829P]
[4] = tested on: PIK3CA (human), P42336 [H1047L]
FLT4 (human) = FLT4 (human) (UniProt P35916)
[5] = tested on: PIK3CA (human), P42336 [M1043I]
STK17B (human) = STK17B (human) (UniProt O94768)
RIPK4 (human) = RIPK4 (human) (UniProt P57078)
HIPK2 (human) = HIPK2 (human) (UniProt Q9H2X6)
CAMK1D (human) = CAMK1D (human) (UniProt Q8IU85)
LCK (human) = LCK (human) (UniProt P06239)
CDKL2 (human) = CDKL2 (human) (UniProt Q92772)
MLTK (human) = MLTK (human) (UniProt Q9NYL2)
KDR (human) = KDR (human) (UniProt P35968)
MATK (human) = MATK (human) (UniProt P42679)
IKBKE (human) = IKBKE (human) (UniProt Q14164)
RPS6KA4 KD2 (human) = RPS6KA4 KD2 (human) (UniProt O75676)
SRC (human) = SRC (human) (UniProt P12931)
TNNI3K (human) = TNNI3K (human) (UniProt Q59H18)
MAPK9 (human) = MAPK9 (human) (UniProt P45984)
MAP3K15 (human) = MAP3K15 (human) (UniProt Q6ZN16)
[6] = biological target: JAK2 JH1 catalytic (human) (UniProt O60674)
TEC (human) = TEC (human) (UniProt P42680)
CLK4 (human) = CLK4 (human) (UniProt Q9HAZ1)
BMX (human) = BMX (human) (UniProt P51813)
RIPK2 (human) = RIPK2 (human) (UniProt O43353)
TLK1 (human) = TLK1 (human) (UniProt Q9UKI8)
PLK1 (human) = PLK1 (human) (UniProt P53350)
FGFR4 (human) = FGFR4 (human) (UniProt P22455)

RIPK2 (human), sequence (O43353 whole entry, looked up): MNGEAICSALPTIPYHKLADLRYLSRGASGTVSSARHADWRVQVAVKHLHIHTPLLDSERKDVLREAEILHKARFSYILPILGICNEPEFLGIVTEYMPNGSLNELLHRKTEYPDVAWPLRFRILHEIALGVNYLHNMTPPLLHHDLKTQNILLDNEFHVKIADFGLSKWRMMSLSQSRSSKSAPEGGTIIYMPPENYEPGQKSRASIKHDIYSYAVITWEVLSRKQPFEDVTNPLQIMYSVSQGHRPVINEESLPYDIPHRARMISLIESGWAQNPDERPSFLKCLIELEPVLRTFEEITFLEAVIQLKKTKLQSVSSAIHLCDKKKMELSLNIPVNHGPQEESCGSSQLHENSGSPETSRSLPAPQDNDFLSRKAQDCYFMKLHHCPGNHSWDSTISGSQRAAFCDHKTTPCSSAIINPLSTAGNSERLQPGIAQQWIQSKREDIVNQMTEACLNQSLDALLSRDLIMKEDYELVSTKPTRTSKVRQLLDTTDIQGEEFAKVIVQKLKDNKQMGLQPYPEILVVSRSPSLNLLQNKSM
RPS6KA4 KD2 (human), sequence (O75676 whole entry, looked up): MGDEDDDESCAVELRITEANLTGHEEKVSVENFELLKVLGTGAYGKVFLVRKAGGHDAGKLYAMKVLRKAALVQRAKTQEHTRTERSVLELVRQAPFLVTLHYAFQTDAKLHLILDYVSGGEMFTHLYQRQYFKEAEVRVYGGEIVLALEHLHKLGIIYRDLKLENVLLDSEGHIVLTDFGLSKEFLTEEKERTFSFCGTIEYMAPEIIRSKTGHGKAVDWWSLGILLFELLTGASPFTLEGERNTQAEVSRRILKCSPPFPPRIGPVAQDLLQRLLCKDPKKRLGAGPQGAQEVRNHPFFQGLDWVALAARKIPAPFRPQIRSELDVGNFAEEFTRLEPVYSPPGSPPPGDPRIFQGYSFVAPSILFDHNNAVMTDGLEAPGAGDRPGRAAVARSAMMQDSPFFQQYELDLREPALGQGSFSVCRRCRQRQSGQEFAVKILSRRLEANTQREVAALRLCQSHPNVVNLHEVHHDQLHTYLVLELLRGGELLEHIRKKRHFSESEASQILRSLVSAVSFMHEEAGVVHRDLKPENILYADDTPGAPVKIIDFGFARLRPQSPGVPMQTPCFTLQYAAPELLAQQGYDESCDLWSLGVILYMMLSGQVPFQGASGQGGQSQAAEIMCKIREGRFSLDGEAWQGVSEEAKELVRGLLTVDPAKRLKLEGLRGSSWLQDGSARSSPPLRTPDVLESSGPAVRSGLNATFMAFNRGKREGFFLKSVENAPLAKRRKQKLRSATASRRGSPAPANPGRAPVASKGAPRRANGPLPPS
TEC (human), sequence (P42680 whole entry, looked up): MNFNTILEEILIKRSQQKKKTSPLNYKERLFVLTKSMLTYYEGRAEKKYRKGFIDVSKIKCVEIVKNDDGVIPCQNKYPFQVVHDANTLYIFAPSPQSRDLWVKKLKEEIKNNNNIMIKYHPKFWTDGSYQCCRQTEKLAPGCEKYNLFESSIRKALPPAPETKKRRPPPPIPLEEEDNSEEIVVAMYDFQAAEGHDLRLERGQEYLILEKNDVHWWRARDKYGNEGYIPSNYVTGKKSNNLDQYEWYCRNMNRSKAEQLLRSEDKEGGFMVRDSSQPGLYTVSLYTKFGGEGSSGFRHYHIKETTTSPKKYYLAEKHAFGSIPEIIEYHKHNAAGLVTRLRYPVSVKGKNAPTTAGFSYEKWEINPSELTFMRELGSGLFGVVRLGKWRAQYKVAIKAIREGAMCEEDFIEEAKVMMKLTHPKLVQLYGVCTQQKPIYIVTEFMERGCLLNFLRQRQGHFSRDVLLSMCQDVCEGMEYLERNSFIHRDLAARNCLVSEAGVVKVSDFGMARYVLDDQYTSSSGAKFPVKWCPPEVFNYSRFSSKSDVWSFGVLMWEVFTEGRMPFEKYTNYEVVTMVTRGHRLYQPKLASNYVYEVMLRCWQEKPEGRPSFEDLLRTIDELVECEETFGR
MAP3K13 (human), sequence (O43283 whole entry, looked up): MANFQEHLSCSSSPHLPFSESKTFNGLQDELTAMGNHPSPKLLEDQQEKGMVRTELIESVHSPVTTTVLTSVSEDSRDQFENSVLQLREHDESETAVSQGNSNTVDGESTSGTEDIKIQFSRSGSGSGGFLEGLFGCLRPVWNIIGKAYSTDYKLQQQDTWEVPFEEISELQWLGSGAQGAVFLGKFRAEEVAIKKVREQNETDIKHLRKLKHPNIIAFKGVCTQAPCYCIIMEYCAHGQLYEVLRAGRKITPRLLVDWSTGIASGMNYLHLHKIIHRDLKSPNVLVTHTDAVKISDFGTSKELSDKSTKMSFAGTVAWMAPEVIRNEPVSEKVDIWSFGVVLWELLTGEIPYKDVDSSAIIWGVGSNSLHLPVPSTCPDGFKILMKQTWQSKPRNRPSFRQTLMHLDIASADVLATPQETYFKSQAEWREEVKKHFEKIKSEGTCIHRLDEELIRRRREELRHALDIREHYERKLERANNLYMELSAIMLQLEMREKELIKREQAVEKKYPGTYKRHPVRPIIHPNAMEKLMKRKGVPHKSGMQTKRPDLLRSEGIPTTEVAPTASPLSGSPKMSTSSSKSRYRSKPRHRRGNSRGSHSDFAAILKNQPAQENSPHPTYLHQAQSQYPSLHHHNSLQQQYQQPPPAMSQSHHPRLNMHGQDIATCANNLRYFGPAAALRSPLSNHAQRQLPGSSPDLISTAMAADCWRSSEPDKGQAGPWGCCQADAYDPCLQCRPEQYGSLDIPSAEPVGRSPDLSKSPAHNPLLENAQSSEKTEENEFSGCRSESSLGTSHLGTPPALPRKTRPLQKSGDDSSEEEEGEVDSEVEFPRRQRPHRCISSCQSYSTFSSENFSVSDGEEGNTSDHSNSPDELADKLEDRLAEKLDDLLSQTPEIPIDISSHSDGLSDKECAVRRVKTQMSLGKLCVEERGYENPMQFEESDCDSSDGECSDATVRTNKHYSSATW
RPS6KA6 KD1 (human), sequence (Q9UK32 whole entry, looked up): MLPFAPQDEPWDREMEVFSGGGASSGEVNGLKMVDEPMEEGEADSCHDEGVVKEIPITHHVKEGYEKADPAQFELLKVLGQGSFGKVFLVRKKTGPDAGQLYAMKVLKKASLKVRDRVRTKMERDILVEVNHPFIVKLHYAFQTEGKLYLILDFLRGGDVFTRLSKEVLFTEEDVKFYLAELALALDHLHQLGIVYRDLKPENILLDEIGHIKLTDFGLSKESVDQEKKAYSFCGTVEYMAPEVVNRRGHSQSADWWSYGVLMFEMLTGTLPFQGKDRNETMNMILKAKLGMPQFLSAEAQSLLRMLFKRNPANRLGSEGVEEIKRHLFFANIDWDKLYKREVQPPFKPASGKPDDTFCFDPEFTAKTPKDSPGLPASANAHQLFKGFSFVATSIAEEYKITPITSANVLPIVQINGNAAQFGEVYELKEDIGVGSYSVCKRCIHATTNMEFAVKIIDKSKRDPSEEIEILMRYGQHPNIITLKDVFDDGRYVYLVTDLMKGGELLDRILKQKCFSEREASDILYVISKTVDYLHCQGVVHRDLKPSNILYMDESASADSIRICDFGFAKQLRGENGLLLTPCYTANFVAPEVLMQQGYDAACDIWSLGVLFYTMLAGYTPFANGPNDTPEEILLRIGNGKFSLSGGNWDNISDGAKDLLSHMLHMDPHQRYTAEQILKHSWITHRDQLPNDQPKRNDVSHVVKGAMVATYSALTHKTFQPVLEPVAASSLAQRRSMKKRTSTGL
MLTK (human), sequence (Q9NYL2 whole entry, looked up): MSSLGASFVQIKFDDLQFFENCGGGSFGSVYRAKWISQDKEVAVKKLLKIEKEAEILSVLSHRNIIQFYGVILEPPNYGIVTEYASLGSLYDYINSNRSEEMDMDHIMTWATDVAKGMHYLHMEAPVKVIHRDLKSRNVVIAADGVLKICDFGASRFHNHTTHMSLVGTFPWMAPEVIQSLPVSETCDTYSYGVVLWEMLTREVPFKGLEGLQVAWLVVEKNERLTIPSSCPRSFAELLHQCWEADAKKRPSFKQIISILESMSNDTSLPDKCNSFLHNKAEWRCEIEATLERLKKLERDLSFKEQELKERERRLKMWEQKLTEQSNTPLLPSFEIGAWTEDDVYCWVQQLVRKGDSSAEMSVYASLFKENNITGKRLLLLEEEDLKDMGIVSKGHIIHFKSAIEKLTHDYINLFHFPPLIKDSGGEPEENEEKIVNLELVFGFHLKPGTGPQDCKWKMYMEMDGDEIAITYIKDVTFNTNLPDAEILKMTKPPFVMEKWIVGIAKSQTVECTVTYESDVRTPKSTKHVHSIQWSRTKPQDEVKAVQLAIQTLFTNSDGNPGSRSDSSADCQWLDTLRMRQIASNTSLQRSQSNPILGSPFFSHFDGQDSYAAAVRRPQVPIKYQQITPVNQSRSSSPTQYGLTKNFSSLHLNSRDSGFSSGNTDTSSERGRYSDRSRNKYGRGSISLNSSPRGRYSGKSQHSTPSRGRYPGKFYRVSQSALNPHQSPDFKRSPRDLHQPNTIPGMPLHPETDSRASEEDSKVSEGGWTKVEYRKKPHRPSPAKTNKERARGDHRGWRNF
CDKL2 (human), sequence (Q92772 whole entry, looked up): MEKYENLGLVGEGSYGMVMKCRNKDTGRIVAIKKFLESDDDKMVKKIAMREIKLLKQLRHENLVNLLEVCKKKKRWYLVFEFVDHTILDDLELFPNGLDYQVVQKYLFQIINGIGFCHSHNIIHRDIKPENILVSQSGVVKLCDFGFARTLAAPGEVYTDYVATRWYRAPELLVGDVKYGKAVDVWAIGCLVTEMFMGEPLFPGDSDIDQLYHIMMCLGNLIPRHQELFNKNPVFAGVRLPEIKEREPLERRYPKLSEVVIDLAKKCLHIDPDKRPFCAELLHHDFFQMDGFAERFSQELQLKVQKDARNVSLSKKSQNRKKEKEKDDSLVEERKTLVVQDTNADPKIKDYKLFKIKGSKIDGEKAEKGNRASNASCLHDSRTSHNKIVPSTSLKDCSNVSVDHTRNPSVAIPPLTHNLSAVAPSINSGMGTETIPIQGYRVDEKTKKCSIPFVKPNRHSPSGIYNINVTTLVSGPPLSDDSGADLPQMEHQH

COc1ccc(-c2ccc3c(N4CCOCC4)nc(N4C[C@@H](C)O[C@@H](C)C4)nc3n2)cc1CO
kinase still bound, per cent of control (RPS6KA6 KD1 (human)): 76%
kinase still bound, per cent of control [1]: 66%
kinase still bound, per cent of control (BLK (human)): 100%
kinase still bound, per cent of control (ULK3 (human)): 100%
kinase still bound, per cent of control [2]: 86%
kinase still bound, per cent of control (STK32B (human)): 100%
kinase still bound, per cent of control (DYRK1A (human)): 94%
kinase still bound, per cent of control (ROS1 (human)): 100%
kinase still bound, per cent of control (PRKCE (human)): 82%
kinase still bound, per cent of control (AKT1 (human)): 88%
kinase still bound, per cent of control (MAPK8 (human)): 87%
kinase still bound, per cent of control (MAP3K13 (human)): 100%
kinase still bound, per cent of control (MAP2K6 (human)): 83%
kinase still bound, per cent of control (BTK (human)): 100%
kinase still bound, per cent of control [3]: 100%
kinase still bound, per cent of control [4]: 26%
kinase still bound, per cent of control (FLT4 (human)): 100%
kinase still bound, per cent of control [5]: 2%
kinase still bound, per cent of control (STK17B (human)): 100%
kinase still bound, per cent of control (RIPK4 (human)): 71%
kinase still bound, per cent of control (HIPK2 (human)): 58%
kinase still bound, per cent of control (CAMK1D (human)): 89%
kinase still bound, per cent of control (LCK (human)): 98%
per cent of control (CDKL2 (human)): 95%
kinase still bound, per cent of control (MLTK (human)): 100%
kinase still bound, per cent of control (KDR (human)): 98%
kinase still bound, per cent of control (MATK (human)): 78%
kinase still bound, per cent of control (IKBKE (human)): 100%
kinase still bound, per cent of control (RPS6KA4 KD2 (human)): 95%
kinase still bound, per cent of control (SRC (human)): 100%
kinase still bound, per cent of control (TNNI3K (human)): 100%
kinase still bound, per cent of control (MAPK9 (human)): 76%
kinase still bound, per cent of control (MAP3K15 (human)): 97%
kinase still bound, per cent of control [6]: 71%
kinase still bound, per cent of control (TEC (human)): 92%
kinase still bound, per cent of control (CLK4 (human)): 62%
kinase still bound, per cent of control (BMX (human)): 86%
kinase still bound, per cent of control (RIPK2 (human)): 100%
kinase still bound, per cent of control (TLK1 (human)): 94%
kinase still bound, per cent of control (PLK1 (human)): 55%
kinase still bound, per cent of control (FGFR4 (human)): 100%

CCC(=O)N1CCN(c2ccc(-n3c(=O)ccc4cnc5ccc(-c6cnc7ccccc7c6)cc5c43)cc2C(F)(F)F)CC1
kinase still bound, per cent of control (RPS6KA6 KD1 (human)): 66%
kinase still bound, per cent of control [1]: 99%
kinase still bound, per cent of control (BLK (human)): 75%
kinase still bound, per cent of control (ULK3 (human)): 100%
kinase still bound, per cent of control [2]: 16%
kinase still bound, per cent of control (STK32B (human)): 87%
kinase still bound, per cent of control (DYRK1A (human)): 71%
kinase still bound, per cent of control (ROS1 (human)): 71%
kinase still bound, per cent of control (PRKCE (human)): 86%
kinase still bound, per cent of control (AKT1 (human)): 91%
kinase still bound, per cent of control (MAPK8 (human)): 22%
kinase still bound, per cent of control (MAP3K13 (human)): 100%
kinase still bound, per cent of control (MAP2K6 (human)): 100%
kinase still bound, per cent of control [4]: 2.6%
kinase still bound, per cent of control (FLT4 (human)): 74%
kinase still bound, per cent of control [5]: 8.6%
kinase still bound, per cent of control (STK17B (human)): 67%
kinase still bound, per cent of control (RIPK4 (human)): 100%
kinase still bound, per cent of control (HIPK2 (human)): 58%
kinase still bound, per cent of control (CAMK1D (human)): 88%
kinase still bound, per cent of control (LCK (human)): 77%
per cent of control (CDKL2 (human)): 58%
kinase still bound, per cent of control (MLTK (human)): 22%
kinase still bound, per cent of control (KDR (human)): 65%
kinase still bound, per cent of control (MATK (human)): 97%
kinase still bound, per cent of control (IKBKE (human)): 87%
kinase still bound, per cent of control (RPS6KA4 KD2 (human)): 100%
kinase still bound, per cent of control (SRC (human)): 95%
kinase still bound, per cent of control (TNNI3K (human)): 66%
kinase still bound, per cent of control (MAPK9 (human)): 40%
kinase still bound, per cent of control (MAP3K15 (human)): 100%
kinase still bound, per cent of control [6]: 65%
kinase still bound, per cent of control (TEC (human)): 99%
kinase still bound, per cent of control (CLK4 (human)): 49%
kinase still bound, per cent of control (BMX (human)): 59%
kinase still bound, per cent of control (RIPK2 (human)): 44%
kinase still bound, per cent of control (TLK1 (human)): 100%
kinase still bound, per cent of control (PLK1 (human)): 85%
kinase still bound, per cent of control (FGFR4 (human)): 21%

CC(C)n1nc(-c2cc3cc(O)ccc3[nH]2)c2c(N)ncnc21
kinase still bound, per cent of control (RPS6KA6 KD1 (human)): 4.6%
kinase still bound, per cent of control [1]: 81%
kinase still bound, per cent of control (BLK (human)): 1.2%
kinase still bound, per cent of control (ULK3 (human)): 65%
kinase still bound, per cent of control [2]: 7%
kinase still bound, per cent of control (STK32B (human)): 8.2%
kinase still bound, per cent of control (DYRK1A (human)): 27%
kinase still bound, per cent of control (ROS1 (human)): 100%
kinase still bound, per cent of control (PRKCE (human)): 0%
kinase still bound, per cent of control (AKT1 (human)): 100%
kinase still bound, per cent of control (MAPK8 (human)): 89%
kinase still bound, per cent of control (MAP3K13 (human)): 100%
kinase still bound, per cent of control (MAP2K6 (human)): 70%
kinase still bound, per cent of control (BTK (human)): 22%
kinase still bound, per cent of control [3]: 10%
kinase still bound, per cent of control (FLT4 (human)): 0.3%
kinase still bound, per cent of control (STK17B (human)): 40%
kinase still bound, per cent of control (RIPK4 (human)): 6.3%
kinase still bound, per cent of control (HIPK2 (human)): 0.9%
kinase still bound, per cent of control (LCK (human)): 0.95%
per cent of control (CDKL2 (human)): 75%
kinase still bound, per cent of control (MLTK (human)): 29%
kinase still bound, per cent of control (MATK (human)): 60%
kinase still bound, per cent of control (IKBKE (human)): 70%
kinase still bound, per cent of control (RPS6KA4 KD2 (human)): 0%
kinase still bound, per cent of control (TNNI3K (human)): 14%
kinase still bound, per cent of control (MAP3K15 (human)): 76%
kinase still bound, per cent of control [6]: 0.95%
kinase still bound, per cent of control (TEC (human)): 100%
kinase still bound, per cent of control (CLK4 (human)): 9.7%
kinase still bound, per cent of control (RIPK2 (human)): 0.8%
kinase still bound, per cent of control (TLK1 (human)): 75%
kinase still bound, per cent of control (PLK1 (human)): 87%
kinase still bound, per cent of control (FGFR4 (human)): 12%
